Assay results: PubChem BioAssay (NCI)
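Protocol summary: plate cells (96-well), add compound at 5 concentrations, incubate 48 h, interpolate endpoints linearly. At the GI50, growth is halved. Definition used: TGI = concentration required for complete inhibition of growth.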

Tests used:
Assay in all cases: NCI tumour cell line growth inhibition, 48 h
PC-3 prostate = system: PC-3 prostate
MOLT-4 leukemia = system: MOLT-4 leukemia
HOP-92 NSCLC = system: HOP-92 NSCLC
SK-MEL-2 melanoma = system: SK-MEL-2 melanoma
HOP-62 NSCLC = system: HOP-62 NSCLC
HCC-2998 colon = system: HCC-2998 colon
IGROV1 ovarian = system: IGROV1 ovarian
COLO 205 colon = system: COLO 205 colon
HL-60(TB) leukemia = system: HL-60(TB) leukemia
SF-268 CNS = system: SF-268 CNS
BT-549 breast = system: BT-549 breast
UO-31 renal = system: UO-31 renal
SK-MEL-28 melanoma = system: SK-MEL-28 melanoma
EKVX NSCLC = system: EKVX NSCLC
HCT-116 colon = system: HCT-116 colon
U251 CNS = system: U251 CNS
NCI-H23 lung = system: NCI-H23 lung
DU-145 prostate = system: DU-145 prostate
TK-10 renal = system: TK-10 renal
UACC-257 melanoma = system: UACC-257 melanoma
SW-620 colon = system: SW-620 colon
MCF7 breast = system: MCF7 breast
ACHN renal = system: ACHN renal
NCI-H226 lung = system: NCI-H226 lung
UACC-62 melanoma = system: UACC-62 melanoma
SF-295 CNS = system: SF-295 CNS
A498 renal = system: A498 renal
KM12 colon = system: KM12 colon
CCRF-CEM leukemia = system: CCRF-CEM leukemia
CAKI-1 renal = system: CAKI-1 renal
SK-MEL-5 melanoma = system: SK-MEL-5 melanoma
RPMI-8226 leukemia = system: RPMI-8226 leukemia
LOX IMVI melanoma = system: LOX IMVI melanoma
HS 578T breast = system: HS 578T breast
NCI-H460 lung = system: NCI-H460 lung
OVCAR-8 ovarian = system: OVCAR-8 ovarian
OVCAR-5 ovarian = system: OVCAR-5 ovarian
HT29 colon = system: HT29 colon
HCT-15 colon = system: HCT-15 colon
SR leukemia = system: SR leukemia
SF-539 CNS = system: SF-539 CNS
T-47D breast = system: T-47D breast
SNB-19 CNS = system: SNB-19 CNS
OVCAR-3 ovarian = system: OVCAR-3 ovarian
M14 melanoma = system: M14 melanoma
A549 NSCLC = system: A549 NSCLC
786-0 renal = system: 786-0 renal
OVCAR-4 ovarian = system: OVCAR-4 ovarian
NCI-H522 lung = system: NCI-H522 lung
MDA-MB-231 breast = system: MDA-MB-231 breast
NCI/ADR-RES ovarian = system: NCI/ADR-RES ovarian
SNB-75 CNS = system: SNB-75 CNS
MDA-MB-435 = system: MDA-MB-435
SN12C renal = system: SN12C renal
K-562 leukemia = system: K-562 leukemia
RXF 393 renal = system: RXF 393 renal

Question: With COc1ccc2c(c1)C(=O)c1c-2c(OCCN(C)C)nc2cc(OC)ccc12 as the compound, how does the GI50 (PC-3 prostate) read?
Answer: 1240 nM

Question: What about the TGI (PC-3 prostate) of the same compound?
Answer: 3690 nM

Question: And the GI50 (MOLT-4 leukemia)?
Answer: 320 nM

Question: And the TGI (MOLT-4 leukemia)?
Answer: 1200 nM

Question: What about the GI50 (HOP-92 NSCLC) of the same compound?
Answer: 1650 nM

Question: What about the TGI (HOP-92 NSCLC) of the same compound?
Answer: 7020 nM

Question: What about the GI50 (SK-MEL-2 melanoma) of the same compound?
Answer: 3310 nM

Question: And the TGI (SK-MEL-2 melanoma)?
Answer: 10300 nM

Question: And the GI50 (HOP-62 NSCLC)?
Answer: 2020 nM

Question: And the TGI (HOP-62 NSCLC)?
Answer: 8040 nM

Question: What about the GI50 (HCC-2998 colon) of the same compound?
Answer: 1330 nM

Question: And the TGI (HCC-2998 colon)?
Answer: 2850 nM

Question: What about the GI50 (IGROV1 ovarian) of the same compound?
Answer: 1010 nM

Question: What about the TGI (IGROV1 ovarian) of the same compound?
Answer: 6030 nM

Question: And the GI50 (COLO 205 colon)?
Answer: 571 nM

Question: And the TGI (COLO 205 colon)?
Answer: 10800 nM

Question: What about the GI50 (HL-60(TB) leukemia) of the same compound?
Answer: 1980 nM

Question: What about the TGI (HL-60(TB) leukemia) of the same compound?
Answer: 4260 nM

Question: And the GI50 (SF-268 CNS)?
Answer: 1120 nM

Question: And the TGI (SF-268 CNS)?
Answer: 2840 nM

Question: And the GI50 (BT-549 breast)?
Answer: 4030 nM

Question: And the TGI (BT-549 breast)?
Answer: 15200 nM

Question: And the GI50 (UO-31 renal)?
Answer: 1160 nM

Question: And the TGI (UO-31 renal)?
Answer: 2660 nM

Question: What about the GI50 (SK-MEL-28 melanoma) of the same compound?
Answer: 2080 nM

Question: And the TGI (SK-MEL-28 melanoma)?
Answer: 4190 nM

Question: What about the GI50 (EKVX NSCLC) of the same compound?
Answer: 2130 nM

Question: What about the TGI (EKVX NSCLC) of the same compound?
Answer: 8630 nM

Question: And the GI50 (HCT-116 colon)?
Answer: 344 nM

Question: What about the TGI (HCT-116 colon) of the same compound?
Answer: 1410 nM

Question: What about the GI50 (U251 CNS) of the same compound?
Answer: 1200 nM

Question: And the TGI (U251 CNS)?
Answer: 2930 nM

Question: What about the GI50 (NCI-H23 lung) of the same compound?
Answer: 1360 nM

Question: What about the TGI (NCI-H23 lung) of the same compound?
Answer: 3500 nM

Question: What about the GI50 (DU-145 prostate) of the same compound?
Answer: 1640 nM

Question: And the TGI (DU-145 prostate)?
Answer: 8030 nM

Question: And the GI50 (TK-10 renal)?
Answer: 3140 nM

Question: What about the TGI (TK-10 renal) of the same compound?
Answer: 13700 nM

Question: What about the GI50 (UACC-257 melanoma) of the same compound?
Answer: 3190 nM

Question: And the TGI (UACC-257 melanoma)?
Answer: 9960 nM

Question: And the GI50 (SW-620 colon)?
Answer: 446 nM

Question: And the TGI (SW-620 colon)?
Answer: 1730 nM

Question: And the GI50 (MCF7 breast)?
Answer: 348 nM

Question: What about the TGI (MCF7 breast) of the same compound?
Answer: 1600 nM

Question: What about the GI50 (ACHN renal) of the same compound?
Answer: 532 nM

Question: What about the TGI (ACHN renal) of the same compound?
Answer: 1900 nM

Question: What about the GI50 (NCI-H226 lung) of the same compound?
Answer: 1330 nM

Question: And the TGI (NCI-H226 lung)?
Answer: 3320 nM

Question: And the GI50 (UACC-62 melanoma)?
Answer: 2120 nM

Question: And the TGI (UACC-62 melanoma)?
Answer: 8510 nM

Question: What about the GI50 (SF-295 CNS) of the same compound?
Answer: 2220 nM

Question: What about the TGI (SF-295 CNS) of the same compound?
Answer: 11500 nM

Question: What about the GI50 (A498 renal) of the same compound?
Answer: 1390 nM

Question: And the TGI (A498 renal)?
Answer: 3070 nM

Question: And the GI50 (KM12 colon)?
Answer: 759 nM

Question: What about the TGI (KM12 colon) of the same compound?
Answer: 2140 nM

Question: What about the GI50 (CCRF-CEM leukemia) of the same compound?
Answer: 536 nM

Question: What about the TGI (CCRF-CEM leukemia) of the same compound?
Answer: 2850 nM

Question: And the GI50 (CAKI-1 renal)?
Answer: 2120 nM

Question: What about the TGI (CAKI-1 renal) of the same compound?
Answer: 11100 nM

Question: What about the GI50 (SK-MEL-5 melanoma) of the same compound?
Answer: 1730 nM

Question: What about the TGI (SK-MEL-5 melanoma) of the same compound?
Answer: 3380 nM

Question: And the GI50 (RPMI-8226 leukemia)?
Answer: 1710 nM

Question: And the TGI (RPMI-8226 leukemia)?
Answer: 5090 nM

Question: And the GI50 (LOX IMVI melanoma)?
Answer: 751 nM

Question: What about the TGI (LOX IMVI melanoma) of the same compound?
Answer: 2070 nM

Question: And the GI50 (HS 578T breast)?
Answer: 2840 nM

Question: What about the TGI (HS 578T breast) of the same compound?
Answer: 9760 nM

Question: And the GI50 (NCI-H460 lung)?
Answer: 411 nM

Question: What about the TGI (NCI-H460 lung) of the same compound?
Answer: 1510 nM

Question: What about the GI50 (OVCAR-8 ovarian) of the same compound?
Answer: 957 nM

Question: And the TGI (OVCAR-8 ovarian)?
Answer: 5350 nM

Question: What about the GI50 (OVCAR-5 ovarian) of the same compound?
Answer: 1900 nM

Question: And the TGI (OVCAR-5 ovarian)?
Answer: 4650 nM

Question: What about the GI50 (HT29 colon) of the same compound?
Answer: 333 nM

Question: And the TGI (HT29 colon)?
Answer: 1370 nM

Question: What about the GI50 (HCT-15 colon) of the same compound?
Answer: 475 nM

Question: And the TGI (HCT-15 colon)?
Answer: 2390 nM

Question: What about the GI50 (SR leukemia) of the same compound?
Answer: 264 nM

Question: What about the TGI (SR leukemia) of the same compound?
Answer: 1420 nM

Question: What about the GI50 (SF-539 CNS) of the same compound?
Answer: 1610 nM

Question: What about the TGI (SF-539 CNS) of the same compound?
Answer: 3320 nM

Question: What about the GI50 (T-47D breast) of the same compound?
Answer: 6100 nM

Question: And the TGI (T-47D breast)?
Answer: 21800 nM

Question: What about the GI50 (SNB-19 CNS) of the same compound?
Answer: 1120 nM

Question: And the TGI (SNB-19 CNS)?
Answer: 6240 nM

Question: What about the GI50 (OVCAR-3 ovarian) of the same compound?
Answer: 1590 nM

Question: What about the TGI (OVCAR-3 ovarian) of the same compound?
Answer: 4060 nM

Question: What about the GI50 (M14 melanoma) of the same compound?
Answer: 1510 nM

Question: What about the TGI (M14 melanoma) of the same compound?
Answer: 3050 nM

Question: What about the GI50 (A549 NSCLC) of the same compound?
Answer: 804 nM

Question: And the TGI (A549 NSCLC)?
Answer: 2800 nM

Question: What about the GI50 (786-0 renal) of the same compound?
Answer: 1460 nM

Question: What about the TGI (786-0 renal) of the same compound?
Answer: 2840 nM

Question: What about the GI50 (OVCAR-4 ovarian) of the same compound?
Answer: 1060 nM

Question: And the TGI (OVCAR-4 ovarian)?
Answer: 2900 nM

Question: What about the GI50 (NCI-H522 lung) of the same compound?
Answer: 750 nM

Question: And the TGI (NCI-H522 lung)?
Answer: 2660 nM

Question: And the GI50 (MDA-MB-231 breast)?
Answer: 1420 nM

Question: What about the TGI (MDA-MB-231 breast) of the same compound?
Answer: 3880 nM

Question: And the GI50 (NCI/ADR-RES ovarian)?
Answer: 695 nM

Question: And the TGI (NCI/ADR-RES ovarian)?
Answer: 4200 nM

Question: And the GI50 (SNB-75 CNS)?
Answer: 1990 nM

Question: What about the TGI (SNB-75 CNS) of the same compound?
Answer: 9020 nM

Question: What about the GI50 (MDA-MB-435) of the same compound?
Answer: 1620 nM

Question: And the TGI (MDA-MB-435)?
Answer: 3720 nM

Question: And the GI50 (SN12C renal)?
Answer: 1060 nM

Question: And the TGI (SN12C renal)?
Answer: 2690 nM

Question: And the GI50 (K-562 leukemia)?
Answer: 1060 nM

Question: What about the TGI (K-562 leukemia) of the same compound?
Answer: 2820 nM

Question: What about the GI50 (RXF 393 renal) of the same compound?
Answer: 1540 nM

Question: What about the TGI (RXF 393 renal) of the same compound?
Answer: 4520 nM
